In patent US8747901B2 (Reata Pharmaceuticals, Inc., priority 2009, dated 2014) one finds oral bioavailability and tolerability profile data, which are given here for one compound.

The conditions of the data set: human, in vivo. The protocol: The synthetic triterpenoid bardoxolone methyl, also known as CDDO-Me and as “RTA 402,” has shown potent anti-inflammatory and anti-tumor properties in preclinical studies and in human clinical trials. […] In these studies bardoxolone methyl was administered orally in a crystalline form (“Form A”), once daily, at a variety of doses.

With `COC(=O)[C@]12CCC(C)(C)C[C@H]1[C@H]1C(=O)C=C3[C@@]4(C)C=C(C#N)C(=O)C(C)(C)[C@@H]4CC[C@@]3(C)[C@]1(C)CC2` [Form A bardoxolone methyl, bardoxolone methyl], the oral bioavailability result is “relatively low oral bioavailability”. The tolerability profile result (po) is listed as “excellent tolerability profile with very few drug-related side effects”.
